# Patent publication US6835382B2, “Ii peptide therapeutics to enhance antigen presentation” (University of Massachusetts, priority 1996, dated 2004)
# Non-standard residues stand in square brackets, D forms with d. hArg = N=C(N)NCCCC[C@H](N)C(=O)O; Cit = NC(=O)NCCC[C@H](N)C(=O)O; Orn = NCCC[C@H](N)C(=O)O
# What was measured:
# [1] = system: murine E^k MHC class II allele; test: simultaneous assay, E^k allele (CH27 APC, TPc9.1 T hybridoma, THMCC82-103 or PGCC81-104); type: cell-based
# How it was run: (§1)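 Antigenic peptide, mitomycin C-treated APC, effector compound and allele-restricted T hybridoma cultured together for 24 h. Supernatant then transferred to interleukin-dependent HT-2 cells. T cell activation quantified as [3H]TdR uptake by HT-2 cells.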
# [2] = molecular target: T1, murine E^d MHC class II allele (Mus musculus, UniProt P01904+P01915); test: simultaneous assay, E^d allele (A20 APC, G28.C9 T hybridoma, HEL106-116; HT-2 [3H]TdR readout); type: cell-based; set-up: The A20 and CH27 B cell lymphoma lines express H-2^d and H-2^k alleles, respectively; endogenous in cells; host or cells: A20 B cell lymphoma (mitomycin C-treated or paraformaldehyde-fixed)
# T1 sequence (P01904 26-255): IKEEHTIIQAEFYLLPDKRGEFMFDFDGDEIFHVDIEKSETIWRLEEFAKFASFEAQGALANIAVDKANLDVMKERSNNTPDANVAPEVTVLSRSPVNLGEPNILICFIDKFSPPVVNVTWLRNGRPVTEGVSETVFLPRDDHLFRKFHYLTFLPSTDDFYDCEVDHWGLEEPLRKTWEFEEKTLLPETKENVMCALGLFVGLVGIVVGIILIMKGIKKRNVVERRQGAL
# T1 sequence (P01915 27-264 limits assumed): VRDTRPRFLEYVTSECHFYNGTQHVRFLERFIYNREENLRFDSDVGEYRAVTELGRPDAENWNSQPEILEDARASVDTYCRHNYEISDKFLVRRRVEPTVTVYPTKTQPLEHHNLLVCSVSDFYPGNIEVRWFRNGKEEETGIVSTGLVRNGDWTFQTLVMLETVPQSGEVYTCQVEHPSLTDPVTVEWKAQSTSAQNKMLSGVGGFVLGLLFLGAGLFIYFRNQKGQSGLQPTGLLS
# How it was run: as §1
# [3] = Table 1, AE peptide 16 μM (second value), 0.075 μM THMCC82-103, supernatant 1:2
# [4] = Table 1, AE peptide 64 μM (first value), 0.075 μM THMCC82-103, supernatant 1:2
# [5] = Table 1, AE peptide 16 μM (second value), 0.4 μM HEL106-116, supernatant 1:4
# [6] = Table 1, AE peptide 64 μM (first value), 0.4 μM HEL106-116, supernatant 1:4
# [7] = Table 14, AE peptide 64 μM, supernatant 1:4
# [8] = Table 15, AE peptide 16 μM, supernatant 1:4
# [9] = Table 16, AE peptide 4 μM, supernatant 1:8
# [10] = Table 5, AE peptide 64 μM, supernatant 1:4, normalized to E^d by a factor of 10
# [11] = Table 5, AE peptide 64 μM, supernatant 1:4
# [12] = Table 7, AE peptide 64 μM, supernatant 1:4, normalized by a factor of 5
# [13] = Table 7, AE peptide 64 μM, supernatant 1:4
# [14] = Table 4, AE109 homolog 64 μM, supernatant 1:2
# [15] = Table 11, AE peptide 64 μM, supernatant 1:4
# [16] = Table 11, AE peptide 64 μM, supernatant 1:8
# [17] = Table 2, AE peptide 64 μM, 0.05 μM PGCC81-104, supernatant 1:2
# [18] = Table 2, AE peptide 64 μM, 0.05 μM HEL106-116, supernatant 1:2
# [19] = Table 10, AE peptide 64 μM, supernatant 1:2 (first value)
# [20] = Table 10, AE peptide 64 μM, supernatant 1:4 (second value)
# [21] = Table 10, AE peptide 16 μM (second value), supernatant 1:2
# [22] = Table 10, AE peptide 64 μM (first value), supernatant 1:2
substance,measurement,setting,value
Ac-YRMK-NH2 [AE117],"Times Baseline Response, E^k",[1]; [3],10.6
same,"Times Baseline Response, E^k",[1]; [4],14.6
same,"Times Baseline Response, E^d",[2]; [5],1.0
same,"Times Baseline Response, E^d",[2]; [6],2.3
Ac-LRLKYPK-NH2 [AE301],"Times Baseline Response, E^k",[1]; [7],59.9
same,"Times Baseline Response, E^k",[1]; [8],46.6
same,"Times Baseline Response, E^k",[1]; [9],15.5
same,"Times Baseline Response, E^d",[2]; [7],12.5
same,"Times Baseline Response, E^d",[2]; [8],30.7
same,"Times Baseline Response, E^d",[2]; [9],20.1
Ac-LR HArg KLPK-NH2 [AE197],"Times Baseline Response, E^k",[1]; [10],39.9
same,"Times Baseline Response, E^k",[1]; [9],1.7
same,"Times Baseline Response, E^d",[2]; [11],10.7
same,"Times Baseline Response, E^d",[2]; [9],16.3
Ac-LRMK H PK-NH2 (Ac-LRMKHPK-NH2) [AE228],"Times Baseline Response, E^k",[1]; [12],20.3
same,"Times Baseline Response, E^d",[2]; [13],8.5
Ac-Y K MKLPKSAK-NH2 [AE134],"Times Baseline Response, E^k",[1]; [14],0.9
same,"Times Baseline Response, E^k",[1]; [9],1.3
same,"Times Baseline Response, E^d",[2]; [14],0.7
same,"Times Baseline Response, E^d",[2]; [9],1.2
Ac-LRMKLPKPPK-NH2 [AE168],"Times Baseline Response, E^k",[1]; [4],"4.7, n.d."
same,"Times Baseline Response, E^d",[2]; [6],"16.7, n.d."
Ac-LRMK F PK-NH2 (Ac-LRMKFPK-NH2) [AE234],"Times Baseline Response, E^k",[1]; [12],16.6
same,"Times Baseline Response, E^d",[2]; [13],14.2
Ac-LRMK D PK-NH2 (Ac-LRMKDPK-NH2) [AE230],"Times Baseline Response, E^k",[1]; [12],1.1
same,"Times Baseline Response, E^d",[2]; [13],0.6
Ac-L[Cit]MKNPK-NH2 [AE342],"Times Baseline Response, E^k",[1]; [8],5.4
same,"Times Baseline Response, E^d",[2]; [8],2.3
Ac-Y[hArg]MKLPKSAK-NH2 [AE132],"Times Baseline Response, E^k",[1]; [14],5.5
same,"Times Baseline Response, E^k",[1]; [9],2.2
same,"Times Baseline Response, E^d",[2]; [14],1.8
same,"Times Baseline Response, E^d",[2]; [9],3.9
Ac-LRMK K PK-NH2 (Ac-LRMKKPK-NH2) [AE229],"Times Baseline Response, E^k",[1]; [12],16.2
same,"Times Baseline Response, E^d",[2]; [13],13.2
Ac-LRMKL p K-NH2 [AE165],"Times Baseline Response, E^k",[1]; [15],3.6
same,"Times Baseline Response, E^d",[2]; [16],26.6
Ac-LR (mL) KyPK-NH2 [AE304],"Times Baseline Response, E^k",[1]; [7],13.4
same,"Times Baseline Response, E^d",[2]; [7],3.9
Ac-ARNKNPF-NH2 [AE347],"Times Baseline Response, E^k",[1]; [8],2.8
same,"Times Baseline Response, E^d",[2]; [8],1.0
Ac-LRMKLP N-NH2 (Ac-LRMKLPN-NH2) [AE246],"Times Baseline Response, E^k","[1]; Table 9, AE peptide 64 μM, supernatant 1:4, normalized by a factor of 5",16.4
same,"Times Baseline Response, E^k",[1]; [9],1.0
same,"Times Baseline Response, E^d","[2]; Table 9, AE peptide 64 μM, supernatant 1:4",7.3
same,"Times Baseline Response, E^d",[2]; [9],21.8
Ac-LRNKNPK-NH2 [AE349],"Times Baseline Response, E^k",[1]; [8],6.1
same,"Times Baseline Response, E^d",[2]; [8],25.3
Ac-Y H MKLPKSAK-NH2 [AE133],"Times Baseline Response, E^k",[1]; [14],0.8
same,"Times Baseline Response, E^d",[2]; [14],0.9
Ac-Y M MKLPKSAK-NH2 [AE141],"Times Baseline Response, E^k",[1]; [14],1.3
same,"Times Baseline Response, E^d",[2]; [14],1.1
Ac-LQLDSLRMKLPKSAK-NH2 [AE151],"Times Baseline Response, E^k",[1]; [17],0.6
same,"activity in simultaneous assay on E^k, in words",[1]; Tables 2 and 18,inhibition
same,"Times Baseline Response, E^d",[2]; [18],2.5
Ac-LRLKYPk-NH2 [AE307],"Times Baseline Response, E^k",[1]; [7],56.4
same,"Times Baseline Response, E^d",[2]; [7],13.2
Ac-Y[Orn]MKLPKSAK-NH2 [AE130],"Times Baseline Response, E^k",[1]; [14],1.1
same,"Times Baseline Response, E^d",[2]; [14],0.9
Ac-YRMKLPKSAK-NH2 [AE109],"Times Baseline Response, E^k",[1]; [3],2.2
same,"Times Baseline Response, E^k",[1]; [4],6.9
same,"Times Baseline Response, E^k",[1]; [17],43.7
same,"Times Baseline Response, E^k",[1]; [14],2.3
same,"Times Baseline Response, E^k","[1]; Table 8, AE peptide 4 μM (third), supernatant 1:4",1.0
same,"Times Baseline Response, E^k","[1]; Table 8, AE peptide 16 μM (second), supernatant 1:4","1.5,"
same,"Times Baseline Response, E^k","[1]; Table 8, AE peptide 64 μM (first), supernatant 1:4","4.3,"
same,"Times Baseline Response, E^k",[1]; [19],66.0
same,"Times Baseline Response, E^k",[1]; [20],56.3
same,"Times Baseline Response, E^d",[2]; [5],20.8
same,"Times Baseline Response, E^d",[2]; [6],39.3
same,"Times Baseline Response, E^d",[2]; [18],25.5
same,"Times Baseline Response, E^d",[2]; [14],3.3
same,"Times Baseline Response, E^d","[2]; Table 8, AE peptide 4 μM (third), supernatant 1:8",7.4
same,"Times Baseline Response, E^d","[2]; Table 8, AE peptide 16 μM (second), supernatant 1:8","17.6,"
same,"Times Baseline Response, E^d","[2]; Table 8, AE peptide 64 μM (first), supernatant 1:8","16.4,"
same,"Times Baseline Response, E^d",[2]; [21],24.3
same,"Times Baseline Response, E^d",[2]; [22],27.5
Ac-Y D MKLPKSAK-NH2 [AE135],"Times Baseline Response, E^k",[1]; [14],1.0
same,"Times Baseline Response, E^d",[2]; [14],1.2
Ac-LRMK E PK-NH2 (Ac-LRMKEPK-NH2) [AE231],"Times Baseline Response, E^k",[1]; [12],1.2
same,"Times Baseline Response, E^d",[2]; [13],1.8
Ac-l RMKLPK-NH2 [AE160],"Times Baseline Response, E^k",[1]; [15],1.7
same,"Times Baseline Response, E^d",[2]; [16],11.0
Ac-LR (mL) KYPK-NH2 [AE303],"Times Baseline Response, E^k",[1]; [7],25.3
same,"Times Baseline Response, E^d",[2]; [7],4.0
Ac-YAMKLPKSAK-NH2 [AE121],"Times Baseline Response, E^k",[1]; [14],1.0
same,"Times Baseline Response, E^k",[1]; [19],21.6
same,"Times Baseline Response, E^k",[1]; [20],19.7
same,"Times Baseline Response, E^d",[2]; [14],1.1
same,"Times Baseline Response, E^d",[2]; [21],1.9
same,"Times Baseline Response, E^d",[2]; [22],2.7
Ac-ARNKNPK-NH2 [AE346],"Times Baseline Response, E^k",[1]; [8],1.8
same,"Times Baseline Response, E^d",[2]; [8],1.2
Ac-LR L KLPK-NH2 (Ac-LRLKLPK-NH2; not fully specified; printed as Ac-LR L KLPK-NH2) [AE206],"Times Baseline Response, E^k",[1]; [10],33.9
same,"Times Baseline Response, E^k",[1]; [7],53.5
same,"Times Baseline Response, E^k",[1]; [8],35.3
same,"Times Baseline Response, E^k",[1]; [9],1.3
same,"Times Baseline Response, E^d",[2]; [11],11.9
same,"Times Baseline Response, E^d",[2]; [7],12.7
same,"Times Baseline Response, E^d",[2]; [8],25.5
same,"Times Baseline Response, E^d",[2]; [9],15.5
Ac-SLRMKLPKSAK-NH2 [AE155],"Times Baseline Response, E^k",[1]; [17],8.4
same,"Times Baseline Response, E^d",[2]; [18],23.4
Ac-ARNKLPK-NH2 [AE344],"Times Baseline Response, E^k",[1]; [8],2.5
same,"Times Baseline Response, E^d",[2]; [8],7.7
Ac-LR (mL) KLPK-NH2 [AE302],"Times Baseline Response, E^k",[1]; [7],26.1
same,"Times Baseline Response, E^d",[2]; [7],4.5
Ac-NLQLDSLRMKLPKSAK-NH2 [AE150],"Times Baseline Response, E^k",[1]; [17],0.8
same,"Times Baseline Response, E^d",[2]; [18],3.2
Ac-LR[Orn]KLPK-NH2 [AE195],"Times Baseline Response, E^k",[1]; [10],12.1
same,"Times Baseline Response, E^k",[1]; [8],19.8
same,"Times Baseline Response, E^d",[2]; [11],12.1
same,"Times Baseline Response, E^d",[2]; [8],34.3
Ac-LRM k LPK-NH2 [AE163],"Times Baseline Response, E^k",[1]; [15],1.1
same,"Times Baseline Response, E^d",[2]; [16],2.4
Ac-Y F MKLPKSAK-NH2 [AE139],"Times Baseline Response, E^k",[1]; [14],1.5
same,"Times Baseline Response, E^d",[2]; [14],0.8
